Article PMC12645191, “Dicarboxylate and dicarboxylic acid appended supramolecular self-associating amphiphiles as antimicrobial agents against high priority bacterial pathogens” (Organic & Biomolecular Chemistry, 2025)

Tests used:
[1] = protein binding in human plasma by equilibrium dialysis; type: in vitro ADME
Experimental: Metabolic stability was assessed in mouse and rat liver microsomes. […] A plasma protein binding assay was performed to assess the extent of compound binding to plasma proteins. This is key as only unbound compound is free to distribute and exert a pharmacological effect. […] To assess the potential for this sub-class of SSAs to be developed as drugs for oral administration, Caco-2 permeability assays were also performed, as a cellular model indicative of human intestinal permeability. […] The […] MS/MS analysis. Samples were analysed using a Shimadzu liquid chromatography system coupled to a Triple Quad 6500+ mass spectrometry (AB Inc.) Separation of compounds was achieved using an HSS T3 column (50 x 2.1 mm) at a temperature of 40 °C and a binary mobile phase gradient at a flow rate of 0.7 mL/min. […] This was ramped to 95 % solvent B at 0.7 minutes, held for 0.5 minutes and then […] returned to initial conditions. Sample analysis was by electrospray ionisation. Protein Binding Measurements in Human Plasma by Using Equilibrium Dialysis Method : The fraction unbound in human plasma (P -KB, Ltd People's hospital of Shandong) were measured using 96-well Equilibrium Dialysis Plate (HTDialysis LLC, Gales Ferry, CT). Human plasma containing 5 μM test compound were dialysed against dialysis buffer (PBS) with initial samples taken to allow for assessment of plasma stability and recovery before the plate was incubated for 6 hours at 37 °C at 5 % CO2. Samples were removed at 6 hours, and all samples […] appropriate analytical internal standard. Samples were centrifuged at 3,220 g for 30 minutes (Eppendorf 5810R) to precipitate protein and enable sampling of supernatant prior to appropriate dilution for liquid chromatography mass -spectrometry (LC-MS/MS) analysis. Samples were analysed using a Shimadzu coupled to a triple Quad 6500 + (AB Inc., Illinois). Separation of analytes was achieved using a Xselect Hss T3 (2.1 x 50 mm) column at a temperature of 40 °C and a binary mobile phase gra dient at a flow rate of 0.8 mL/min. Initial […] formic acid in acetonitrile); this was ramped to 98 % B at 0.5 min, held for 0.4 min and then immediately returned to initial conditions. Sample analysis was by electrospray ionisation in positive ion mode. Bi-directional Permeability in Caco-2 Cell Line: The bi-directional permeability in Caco-2 cell lines was determined by seeding cells onto an HTS Transwell plate. Cells were cultivated for 14-18 days in a cell culture incubator at 37 °C, 5 % CO2, 95 % relative humidity. Cell culture medium was replaced every other day. To assess monolayer integrity the transepithelial electrical resistance (TEER) across the monolayer was measured using Millicell Epithelial volt-ohm meter prior to assay and Lucifer yellow (LY) fluorescence measurement post-assay. Test and control compounds were prepared in DMSO and diluted in Hank's Balanced Saline […] Compound was added to the donor compartment of the transwell plate for both apical to basolateral (A>B) and basolateral to apical (B>A) measurements, with blank HBSS being added to the receiver compartment. The transwell plate was then incubated at 37 °C, 5 % CO2 for 2 hours. 5

Caco-2 cell line = experiment: bi-directional permeability in Caco-2 cell line; type: in vitro ADME, human
Experimental: Metabolic stability was assessed in mouse and rat liver microsomes. Microsomes are subcellular fractions of hepatocytes and contain CYP450s, the predominant enzymes involved in first-pass metabolism.[66] […] A plasma protein binding assay was performed to assess the extent of compound binding to plasma proteins. This is key as only unbound compound is free to distribute and exert a pharmacological effect. […] To assess the potential for this sub-class of SSAs to be developed as drugs for oral administration, Caco-2 permeability assays were also performed, as a cellular model indicative of human intestinal permeability. […]
Sample analysis was by electrospray ionisation. […]
Bi-directional Permeability in Caco-2 Cell Line:
The bi-directional permeability in Caco-2 cell lines was determined by seeding cells onto an HTS Transwell plate. Cells were cultivated for 14-18 days in a cell culture incubator at 37 °C, 5 % CO2, 95 % relative humidity. Cell culture medium was replaced every other day. To assess monolayer integrity the transepithelial electrical resistance (TEER) across the monolayer was measured using Millicell Epithelial volt-ohm meter prior to assay and Lucifer yellow (LY) fluorescence measurement post-assay.
Test and control compounds were prepared in DMSO and diluted in Hank’s Balanced Saline […]
Solution (HBSS, pH 7.4) to a final concentration of 5 or 10 µM. Compound was added to the […]
donor compartment of the transwell plate for both apical to basolateral (A>B) and basolateral […]
to apical (B>A) measurements, with blank HBSS being added to the receiver compartment.
The transwell plate was then incubated at 37 °C, 5 % CO2 for 2 hours.

[2] = Caco-2, 5 or 10 µM, HBSS pH 7.4, 2 hours

| SMILES | remaining at 6 h, 5 µM ([1]; human plasma, 5 µM, 37 °C) [%] | % Unbound ([1]; human, plasma) [%] | fraction unbound ([1]; human, plasma) | Efflux Ratio (Caco-2 cell line; Caco-2) | Recovery (%) AP-BL (Caco-2 cell line; Caco-2) [%] | Recovery (%) BL-AP (Caco-2 cell line; Caco-2) [%] | Papp (A-B) (Caco-2 cell line; [2]) | Papp (B-A) (Caco-2 cell line; [2]) |
| --- | --- | --- | --- | --- | --- | --- | --- | --- |
| CC(=O)N1CCN(c2ccc(OCC3COC(Cn4ccnc4)(c4ccc(Cl)cc4Cl)O3)cc2)CC1 (centres unmarked) [Ketoconazole, reference compound] | 101 | 0.86 | 0.0086 | – | – | – | – | – |
| C[C@H]1O[C@@H](O[C@H]2[C@@H](O)C[C@H](O[C@H]3[C@@H](O)C[C@H](O[C@H]4CC[C@@]5(C)[C@H](CC[C@@H]6[C@@H]5C[C@@H](O)[C@]5(C)[C@@H](C7=CC(=O)OC7)CC[C@]65O)C4)O[C@@H]3C)O[C@@H]2C)C[C@H](O)[C@@H]1O [Digoxin, reference compound] | – | – | – | 45.59 | 95.92 | 99.20 | 0.42 10-6, cm/s | 18.74 10-6, cm/s |
